# Measured values as given in patent US20140242093A1, “METHODS AND COMPOSITIONS FOR MODULATING THE INNATE IMMUNE RESPONSE AND/OR MYOGENESIS IN A MAMMALIAN SUBJECT” (FRED HUTCHINSON CANCER RESEARCH CENTER, priority 2011, published 2014).
# System: control human primary myoblasts
# Assay: Expression microarray of primary myoblasts transduced with lentivirus carrying DUX4-fl, DUX4-s or GFP
# Procedure: Primary human myoblasts were collected and cultured as previously described (Snider et al., 2010). Primary myoblasts were maintained at or below 70% confluency for proliferation. For differentiation, cells were allowed to reach 95-100% confluency in growth medium. Once confluency was reached, the cells were changed to differentiation medium (F10 media supplemented with 1% horse serum, 10 μg/mL insulin, and 10 μg/mL transferrin, penicillin/streptomycin) and maintained for 4 days. Human RD cells were grown in DMEM in 10% bovine calf serum (Hyclone) and penicillin/streptomycin. The primary myoblasts were transduced with lentivirus carrying DUX-fl, DUX4- or GFP (MOI=15).
# Expression microarrays were performed on the transduced cells at 24 hours after transduction as follows. […] Samples were analyzed by Illumina Human Whole Genome microarrays. Probe intensities were corrected, normalized, and summarized by the Lumi package of Bioconductor (Du et al., 2008). Differentially expressed genes were identified by the LIMMA package of Bioconductor (Wettenhall and Smyth, 2004). Gene set enrichment analysis (GSEA) was performed using the Bioconductor GOstats package (Falcon and Gentleman, 2007).
substance,measurement,setting,value
"DUX4-fl: full-length DUX4 protein (SEQ ID NO:110), expressed from lentiviral or pCS2 vectors or in vitro translated",CHI3L2 expression fc,"Refseq NM_004000.2, cultured human skeletal muscle",−2.705
same,IRF7 expression fc,"Refseq NM_004029.2, cultured human skeletal muscle",−1.959
same,CRY1 expression fc,Refseq NM_004075.2,2.342
same,PSPN expression fc,Refseq NM_004158.2,2.203
same,BEST1 fc,Refseq NM_004183.2,−1.101
same,UBE2L6 expression fc,"Refseq NM_004223.3, cultured human skeletal muscle",−3.085
same,fc of STK17B (expression array),Refseq NM_004226.2,−0.05995
same,fc of SLC9A3R1 (expression array),Refseq NM_004252.2,−1.036
same,BST2 expression fc,"Refseq NM_004335.2, cultured human skeletal muscle",−4.248
same,CREB1 fc,Refseq NM_004379.2,−1.133
same,fc of HOXB7 (expression array),Refseq NM_004502.3,−1.037
same,SP110 expression fc,"Refseq NM_004510.2, cultured human skeletal muscle",−2.941
same,PSPH fc,Refseq NM_004577.3,−1.164
same,XPC expression fc,"Refseq NM_004628.3, cultured human skeletal muscle",−2.458
same,PABPN1 expression fc,Refseq NM_004643.1,2.567
same,MAP3K6 fc,Refseq NM_004672.3,−1.074
same,fc of SLC16A5 (expression array),Refseq NM_004695.2,−1.025
same,fc of SFRS2IP (expression array),Refseq NM_004719.2,−0.0565
same,fc of ARHGEF2 (expression array),Refseq NM_004723.2,−1.057
same,TIAF1 fc,Refseq NM_004740.3,−1.123
same,NOLC1 expression fc,Refseq NM_004741.1,2.439
same,SLIT2 expression fc,Refseq NM_004787.1,2.369
same,LPXN fc,Refseq NM_004811.1,−1.124
same,PEX16 fc,Refseq NM_004813.1,−1.101
same,C9orf61 expression fc,Refseq NM_004816.2,2.614
same,MED26 expression fc,Refseq NM_004831.3,2.1
same,fc of GSTO1 (expression array),Refseq NM_004832.1,−1.03
same,fc of LITAF (expression array),Refseq NM_004862.2,−0.5892
same,fc of SCAMPI (expression array),Refseq NM_004866.4,−0.4749
same,fc of APBA3 (expression array),Refseq NM_004886.3,−1.032
same,SERPINI1 expression fc,Refseq NM_005025.3,1.809
same,TRIM25 expression fc,"Refseq NM_005082.4, cultured human skeletal muscle",−2.513
same,SFRS17A expression fc,Refseq NM_005088.2,2.456
same,ISG15 expression fc,"Refseq NM_005101.1, cultured human skeletal muscle",−4.311
same,MVP fc,Refseq NM_005115.3,−1.178
same,MED13 expression fc,Refseq NM_005121.2,1.817
same,fc of REC8 (expression array),Refseq NM_005132.2,−1.007
same,ATP6V0A1 fc,Refseq NM_005177.3,−1.152
same,CEBPB expression fc,"Refseq NM_005194.2, cultured human skeletal muscle",−2.441
same,ETS1 fc,Refseq NM_005238.2,−1.067
same,FAT1 fc,Refseq NM_005245.3,−1.138
same,GPR37 expression fc,Refseq NM_005302.2,2.121
same,H1F0 expression fc,"Refseq NM_005318.2, cultured human skeletal muscle",−2.434
same,HSPA1A expression fc,Refseq NM_005345.4,3.54
same,HSPA1B expression fc,Refseq NM_005346.3,3.402
same,NEFM expression fc,Refseq NM_005382.1,2.925
same,SHMT2 fc,Refseq NM_005412.4,−1.089
same,STAT2 expression fc,"Refseq NM_005419.2, cultured human skeletal muscle",−2.69
same,EOMES expression fc,Refseq NM_005442.2,2.897
same,TOM1 fc,Refseq NM_005488.1,−1.129
same,HLA-B expression fc,"Refseq NM_005514.5, cultured human skeletal muscle",−2.752
same,HLA-E fc,Refseq NM_005516.4,−1.11
same,IFI16 expression fc,"Refseq NM_005531.1, cultured human skeletal muscle",−2.008
same,IFI27 expression fc,"Refseq NM_005532.3, cultured human skeletal muscle",−6.527
same,IFI35 expression fc,"Refseq NM_005533.2, cultured human skeletal muscle",−3.847
same,IRS1 fc,Refseq NM_005544.1,−1.157
same,KLC1 expression fc,Refseq NM_005552.4,1.967
same,RGS4 expression fc,Refseq NM_005613.3,1.951
same,SGK expression fc,Refseq NM_005627.2,2.04
same,TAF4B expression fc,Refseq NM_005640.1,1.87
same,fc of TERF2 (expression array),Refseq NM_005652.2,−1.02
same,fc of REEP5 (expression array),Refseq NM_005669.4,−0.3556
same,fc of HIPK3 (expression array),Refseq NM_005734.3,−0.2982
same,ARIH1 expression fc,Refseq NM_005744.2,2.243
same,fc of NAMPT (expression array),Refseq NM_005746.2,−0.5767
same,LHFPL2 fc,Refseq NM_005779.1,−1.13
same,STX6 expression fc,Refseq NM_005819.4,2.053
same,fc of RCAN2 (expression array),Refseq NM_005822.2,−0.5968
same,MFGE8 fc,Refseq NM_005928.1,−1.15
same,MT1X expression fc,"Refseq NM_005952.2, cultured human skeletal muscle",−2.444
same,SNAI1 expression fc,Refseq NM_005985.2,1.943
same,RBM12 expression fc,Refseq NM_006047.4,2.013
same,TRIM22 expression fc,"Refseq NM_006074.3, cultured human skeletal muscle",−2.581
same,CBARA1 expression fc,Refseq NM_006077.2,2.064
same,TUBB2C expression fc,Refseq NM_006088.5,1.948
same,LASP1 fc,Refseq NM_006148.1,−1.152
same,NFE2L2 fc,Refseq NM_006164.2,−1.093
same,OAS3 expression fc,"Refseq NM_006187.2, cultured human skeletal muscle",−4.029
same,fc of PDGFRL (expression array),Refseq NM_006207.1,−0.6227
same,PSME1 fc,Refseq NM_006263.2,−1.138
same,STK3 expression fc,Refseq NM_006281.2,2.186
same,THY1 fc,Refseq NM_006288.2,−1.067
same,TNFAIP3 expression fc,"Refseq NM_006290.2, cultured human skeletal muscle",−2.897
same,HSPB3 expression fc,Refseq NM_006308.1,1.914
same,NXF1 expression fc,Refseq NM_006362.4,4.233
same,fc of ATG7 (expression array),Refseq NM_006395.1,−1.016
same,SLC34A2 expression fc,Refseq NM_006424.2,5.514
same,TXNRD2 fc,Refseq NM_006440.3,−1.104
same,fc of MXD4 (expression array),Refseq NM_006454.2,−1.035
same,ARID3B expression fc,Refseq NM_006465.2,2.024
same,TXNIP expression fc,"Refseq NM_006472.2, cultured human skeletal muscle",−1.9
same,ZNF217 expression fc,Refseq NM_006526.2,4.114
same,FAM189B fc,Refseq NM_006589.2,−1.075
same,fc of TCFL5 (expression array),Refseq NM_006602.2,−1.053
same,RFPL2 expression fc,Refseq NM_006605.1,7.293
same,fc of NES (expression array),Refseq NM_006617.1,−0.08904
same,HSPH1 expression fc,Refseq NM_006644.2,2.217
same,HCP5 fc,Refseq NM_006674.2,−1.099
same,UGP2 fc,Refseq NM_006759.3,−1.169
same,IFI44L expression fc,"Refseq NM_006820.1, cultured human skeletal muscle",−5.117
same,fc of CKAP4 (expression array),Refseq NM_006825.2,−1.006
same,fc of ILVBL (expression array),Refseq NM_006844.3,−1.015
same,KDELR3 fc,Refseq NM_006855.2,−1.163
same,fc of GMPR (expression array),Refseq NM_006877.2,−0.4519
same,SLC2A3 expression fc,Refseq NM_006931.1,3.385
same,fc of HSPA13 (expression array),Refseq NM_006948.4,−0.1756
same,ZBTB25 fc,Refseq NM_006977.2,−1.113
same,ADAMTS1 fc,Refseq NM_006988.3,−1.164
same,C1Oorf10 expression fc,"Refseq NM_007021.2, cultured human skeletal muscle",−2.641
same,fc of DNAJB4 (expression array),Refseq NM_007034.3,−1.024
same,KATNA1 expression fc,Refseq NM_007044.2,1.819
same,UBL3 expression fc,Refseq NM_007106.2,2.164
same,TESK2 expression fc,Refseq NM_007170.2,1.787
same,NUP50 expression fc,Refseq NM_007172.3,2.324
same,fc of PACSIN2 (expression array),Refseq NM_007229.1,−1.038
same,DUSP12 expression fc,Refseq NM_007240.1,2.249
same,fc of MGLL (expression array),Refseq NM_007283.5,−1.033
same,STAT1 expression fc,"Refseq NM_007315.2, cultured human skeletal muscle",−2.915
same,fc of LGALS9 (expression array),Refseq NM_009587.2,−0.8549
same,FRAT2 expression fc,Refseq NM_012083.2,1.918
same,fc of CDC42EP4 (expression array),Refseq NM_012121.4,−1.034
same,CHORDC1 expression fc,Refseq NM_012124.1,1.805
same,CLDN14 expression fc,Refseq NM_012130.2,3.148
same,TFIP11 expression fc,Refseq NM_012143.2,3.191
same,SIRT1 expression fc,Refseq NM_012238.3,1.844
same,KCNH4 expression fc,Refseq NM_012285.1,2.749
same,BAMBI expression fc,Refseq NM_012342.2,2.783
same,fc of TINF2 (expression array),Refseq NM_012461.1,−1.025
same,CD24 expression fc,Refseq NM_013230.2,2.624
same,ZNF214 expression fc,Refseq NM_013249.1,2.219
same,TBK1 fc,Refseq NM_013254.2,−1.08
same,MYLIP expression fc,Refseq NM_013262.3,1.824
same,TRA2A expression fc,Refseq NM_013293.3,1.978
same,fc of EEF2K (expression array),Refseq NM_013302.3,−1.058
same,SERTAD1 expression fc,Refseq NM_013376.3,2.002
same,fc of SLC25A24 (expression array),Refseq NM_013386.3,−0.2843
same,fc of CLIC4 (expression array),Refseq NM_013943.1,−0.9976
same,BZW2 expression fc,Refseq NM_014038.1,2.677
same,LRP10 fc,Refseq NM_014045.3,−1.102
same,fc of FAM156A (expression array),Refseq NM_014138.3,−1.027
same,SMARCAL1 fc,Refseq NM_014140.2,−1.157
same,CCDC59 expression fc,Refseq NM_014167.2,1.892
same,fc of TDRD7 (expression array),Refseq NM_014290.1,−1.062
same,DDX58 expression fc,"Refseq NM_014314.3, cultured human skeletal muscle",−2.466
same,PDSS1 expression fc,Refseq NM_014317.3,2.003
same,AMACR expression fc,Refseq NM_014324.4,2.743
same,PPP1R15A expression fc,Refseq NM_014330.2,2.08
same,TSPAN13 expression fc,Refseq NM_014399.3,2.117
same,APOBEC3C fc,Refseq NM_014508.2,−1.108
same,EVC expression fc,"Refseq NM_014556.2, cultured human skeletal muscle",−1.954
same,SCHIP1 expression fc,"Refseq NM_014575.2, cultured human skeletal muscle",−2.093
same,SLC40A1 expression fc,Refseq NM_014585.3,1.859
same,CDR2L fc,Refseq NM_014603.1,−1.119
same,TAX1BP3 fc,Refseq NM_014604.2,−1.072
same,CTR9 expression fc,Refseq NM_014633.3,2.402
same,SLC25A44 expression fc,Refseq NM_014655.1,2.017
same,MTSS1 fc,Refseq NM_014751.4,−1.159
same,LBA1 fc,Refseq NM_014831.1,−1.121
same,KIAA0020 expression fc,Refseq NM_014878.4,2.017
same,ABLIM3 fc,Refseq NM_014945.2,−1.174
same,WDR47 expression fc,Refseq NM_014969.4,2.277
same,ARC expression fc,Refseq NM_015193.3,1.802
